The record followed here is patent US9839642B2, “Beta-tetrazolyl-propionic acids as metallo-beta-lactamase inhibitors” (priority 2014, dated 2017).

Each structure is given as a SMILES string.

The target in one assay is IMP-1 (Serratia marcescens, UniProt P52699). The experiment in a line: Enzyme activity: determination of IC50, fluorescence assay with CCF2-FA substrate. The settings on record: IMP-1 enzyme 2 pM, CCF2-FA 1.25 μM, 2 hours at 25° C.; read-out: IMP1 IC50. The class given is biochemical. In outline:
(§1)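 Read-out: fluorescence, ex 405 nm / em 460 nm, after 2 h at 25° C with 1.25 μM CCF2-FA. Buffer 100 mM KH2PO4 pH 7, 0.005% Tween-20, 10 μM ZnSO4; enzyme 1 pM NDM-1, 2 pM IMP-1, 30 pM VIM-1. IC50 by 4-parameter fit.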

For a further assay, the target named is NDM-1 (Klebsiella pneumoniae, UniProt C7C422). The description is as above. As to conditions: NDM-1 enzyme 1 pM, CCF2-FA 1.25 μM, 2 hours at 25° C.; read-out: NDM1 IC50. The class given is biochemical. In outline: as §1
NDM-1, sequence (C7C422 29-270, looked up, species assumed): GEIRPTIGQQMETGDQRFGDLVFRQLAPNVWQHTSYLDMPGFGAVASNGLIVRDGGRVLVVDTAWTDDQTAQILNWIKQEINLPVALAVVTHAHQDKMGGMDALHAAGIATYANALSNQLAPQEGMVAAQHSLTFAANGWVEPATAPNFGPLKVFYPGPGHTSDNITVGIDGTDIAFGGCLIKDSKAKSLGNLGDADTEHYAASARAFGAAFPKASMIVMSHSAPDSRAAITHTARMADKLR
A further assay deals with VIM-1 (Pseudomonas aeruginosa, UniProt A0A0F7KYQ8). Described as above. The assay is classed as biochemical. The settings on record: VIM-1 enzyme 30 pM, CCF2-FA 1.25 μM, 2 hours at 25° C.; read-out: VIM1 IC50. In outline: as §1
Assay [1] deals with Escherichia coli expressing NDM-1 (CLB30016). The experiment in a line: Antibiotic potentiation activity: synergistic concentration (MITC95) with imipenem, growth by OD600. The settings on record: E. coli CLB30016 (NDM-1), 95% inhibition of growth. The class given is cell-based. In outline: (§2)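 Strains grown overnight at 35° C, resuspended in saline, diluted 1:100 into 1.1×CAMHB; imipenem at 1 μg/ml or 4 μg/ml with test compound 200 μM to 0.195 μM. Incubated 22 hours to 24 hours at 35° C, OD600 read; MITC95 is lowest compound concentration inhibiting 95% of growth.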

Assay [2] concerns Klebsiella pneumoniae expressing VIM-1 (IHMA599644). The description is as above. As to conditions: K. pneumoniae IHMA599644 (VIM-1), 95% inhibition of growth. The assay is classed as cell-based. In short, it runs like this:
as §2

In assay [3] the test system is Serratia marcescens expressing IMP-1 (CL5741). The description is as above. The assay is classed as cell-based. As to conditions: S. marcescens CL5741 (IMP-1), 95% inhibition of growth. In outline: as §2

IMP-1, sequence (P52699 19-246, looked up, species assumed): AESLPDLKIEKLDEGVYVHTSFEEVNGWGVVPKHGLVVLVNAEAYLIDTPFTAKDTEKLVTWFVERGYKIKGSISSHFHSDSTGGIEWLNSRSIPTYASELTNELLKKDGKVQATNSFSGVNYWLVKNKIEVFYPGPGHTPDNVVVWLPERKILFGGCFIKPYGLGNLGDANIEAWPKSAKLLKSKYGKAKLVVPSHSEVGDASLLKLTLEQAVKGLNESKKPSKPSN

As for `CCC[C@H](C(=O)O)[C@H](Cc1ccccc1-c1ccc(CO)cc1)c1nn[nH]n1` [Example 403, (2S)-2-[(1S)-2-[4′-(hydroxymethyl)biphen-yl-2-yl]-1-(2H-tetrazol-5-yl)ethyl]pentanoic acid], the IC50 at IMP-1 was determined as 550 nM; at NDM-1 it was 2.4 nM; on VIM-1, 3.3 nM. Besides, in assay [1], the “NDM1 EC30016 MITC95” value was 9.4 µM. The “VIM1 KP599644 MITC95” value in assay [2] worked out at 50 µM. In addition, the “IMP1 SM5741 MITC95” value in assay [3] amounted to 18.8 µM.

As for `CC(C[C@H](C(=O)O)[C@H](Cc1ccc(N)nc1)c1nnn[nH]1)c1ccccc1` (stereo partly drawn) [Example 404, (2S)-2-((S)-2-(6-aminopyridin-3-yl)-1-(1H-tetrazol-5-yl)ethyl)-4-phenylpentanoic acid], the IC50 at IMP-1 stood at 622 nM; on NDM-1, 228 nM; at VIM-1 it was 21.9 nM. Moreover, in assay [1], the “NDM1 EC30016 MITC95” value came to 18.75 µM. Moreover, the “VIM1 KP599644 MITC95” value in assay [2] amounted to 75 µM. Moreover, the “IMP1 SM5741 MITC95” value in assay [3] was determined as 75 µM.

Turning to `CCC[C@H](C(=O)O)[C@H](CCc1ccc(N)nc1)c1nnn[nH]1` [Example 405, (2S,3S)-5-(6-aminopyridin-3-yl)-2-propyl-3-(1H-tetrazol-5-yl)pentanoic acid], the IC50 came to 14800 nM on IMP-1, 2830 nM on NDM-1 and 39.6 nM at VIM-1. Also, the “NDM1 EC30016 MITC95” value in assay [1] was determined as 12.5 µM. Moreover, the “VIM1 KP599644 MITC95” value in assay [2] stood at 12.5 µM. Also, the “IMP1 SM5741 MITC95” value in assay [3] is 200 µM.

Turning to `CCC[C@H](C(=O)O)[C@H](CCCc1ccc(N)nc1)c1nnn[nH]1` [Example 406, (2S,3S)-6-(6-aminopyridin-3-yl)-2-propyl-3-(1H-tetrazol-5-yl)hexanoic acid], the IC50 at IMP-1 came out at 815 nM; on NDM-1, 428 nM; at VIM-1 it was 14.9 nM. Also, the “NDM1 EC30016 MITC95” value in assay [1] was found to be 6.25 µM. The “VIM1 KP599644 MITC95” value in assay [2] came to 6.25 µM. Further, the “IMP1 SM5741 MITC95” value in assay [3] was found to be 37.5 µM.

Turning to `CC(C)C[C@H](C(=O)O)[C@H](Cc1cc(Cl)nc(NCCO)c1)c1nnn[nH]1` [Example 407], the IC50 was found to be 923 nM on IMP-1, 34.4 nM at NDM-1 and 2.22 nM on VIM-1. The “NDM1 EC30016 MITC95” value in assay [1] stood at 18.75 µM. Besides, the “VIM1 KP599644 MITC95” value in assay [2] came out at 50 µM. The “IMP1 SM5741 MITC95” value in assay [3] was determined as 75 µM.

Consider `CCC[C@H](C(=O)O)[C@H](Cc1ccc(C2CCNCC2)nc1)c1nnn[nH]1` [Example 408, (S)-2-((S)-2-(6-(piperidin-4-yl)pyridin-3-yl)-1-(1H-tetrazol-5-yl)ethyl)pentanoic acid], for which the IC50 at IMP-1 stood at 3450 nM; on NDM-1 it was 250 nM; on VIM-1, 6.5 nM. The “NDM1 EC30016 MITC95” value in assay [1] amounted to 7.813 µM. The “VIM1 KP599644 MITC95” value in assay [2] worked out at 25 µM. Moreover, the “IMP1 SM5741 MITC95” value in assay [3] was 75 µM.

Turning to `CCC[C@H](C(=O)O)[C@H](Cc1ccc(C2CCNC2)nc1)c1nnn[nH]1` (stereo partly drawn) [Example 409, (2S)-2-((1S)-2-(6-(pyrrolidin-3-yl)pyridin-3-yl)-1-(1H-tetrazol-5-yl)ethyl)pentanoic acid], the IC50 on IMP-1 was determined as 19800 nM; on NDM-1, 810 nM; at VIM-1, 14 nM. For the same compound, in assay [1], the “NDM1 EC30016 MITC95” value came to 12.5 µM. Moreover, the “VIM1 KP599644 MITC95” value in assay [2] was found to be 25 µM. In addition, the “IMP1 SM5741 MITC95” value in assay [3] came out at 200 µM.

Turning to `CCC[C@H](C(=O)O)[C@H](Cc1ccc(C2CCN(C=N)C2)nc1)c1nnn[nH]1` (stereo partly drawn) [Example 410, (2S)-2-((1S)-2-(6-(1-(iminomethyl)pyrrolidin-3-yl)pyridin-3-yl)-1-(1H-tetrazol-5-yl)ethyl)pentanoic acid], the values for the IC50 on IMP-1, on NDM-1 and at VIM-1 were 6030 nM, 417 nM and 6.23 nM, respectively. For the same compound, the “NDM1 EC30016 MITC95” value in assay [1] came to 7.813 µM. The “VIM1 KP599644 MITC95” value in assay [2] was determined as 25 µM. For the same compound, in assay [3], the “IMP1 SM5741 MITC95” value was found to be 75 µM.

Consider `CCC[C@H](C(=O)O)[C@H](Cc1ccc(C2CCN(C(=N)N)C2)nc1)c1nnn[nH]1` (stereo partly drawn) [Example 411, (2S)-2-((1S)-2-(6-(1-carbamimidoylpyrrolidin-3-yl)pyridin-3-yl)-1-(1H-tetrazol-5-yl)ethyl)pentanoic acid], for which the IC50 was found to be 2770 nM at IMP-1, 179 nM on NDM-1 and 2.96 nM on VIM-1. Besides, in assay [1], the “NDM1 EC30016 MITC95” value was 4.688 µM. For the same compound, the “VIM1 KP599644 MITC95” value in assay [2] was 12.5 µM. Moreover, the “IMP1 SM5741 MITC95” value in assay [3] was 50 µM.

Regarding `CCC[C@H](C(=O)O)[C@H](Cc1ccc(C2CCNCC2)cc1)c1nnn[nH]1` [Example 412, (S)-2-((S)-2-(4-(piperidin-4-yl)phenyl)-1-(1H-tetrazol-5-yl)ethyl)pentanoic acid], the results for the IC50 on IMP-1, on NDM-1 and on VIM-1 were 275 nM, 71.4 nM and 4.49 nM, respectively. Also, the “NDM1 EC30016 MITC95” value in assay [1] was determined as 9.375 µM. For the same compound, in assay [2], the “VIM1 KP599644 MITC95” value amounted to 12.5 µM. The “IMP1 SM5741 MITC95” value in assay [3] was 9.375 µM.

Consider `CCC[C@H](C(=O)O)[C@H](Cc1ccc(C2CCNC2)cc1)c1nnn[nH]1` (stereo partly drawn) [Example 413, (2S)-2-((1S)-2-(4-(pyrrolidin-3-yl)phenyl)-1-(1H-tetrazol-5-yl)ethyl)pentanoic acid], for which the values for the IC50 on IMP-1, at NDM-1 and on VIM-1 were 1100 nM, 146 nM and 4.6 nM, respectively. The “NDM1 EC30016 MITC95” value in assay [1] came out at 6.25 µM. The “VIM1 KP599644 MITC95” value in assay [2] amounted to 12.5 µM. The “IMP1 SM5741 MITC95” value in assay [3] was 25 µM.

For `CCC[C@H](C(=O)O)[C@H](Cc1ccc(C2CCN(C(=N)N)C2)cc1)c1nnn[nH]1` (stereo partly drawn) [Example 414, (2S)-2-((1S)-2-(4-(1-carbamimidoylpyrrolidin-3-yl)phenyl)-1-(1H-tetrazol-5-yl)ethyl)pentanoic acid], the IC50 turned out to be 214 nM at IMP-1, 69 nM at NDM-1 and 1.52 nM at VIM-1. Further, the “NDM1 EC30016 MITC95” value in assay [1] worked out at 4.688 µM. Besides, the “VIM1 KP599644 MITC95” value in assay [2] came to 12.5 µM. Moreover, in assay [3], the “IMP1 SM5741 MITC95” value turned out to be 9.375 µM.

Take `CCC[C@H](C(=O)O)[C@H](Cc1ccc(C2CCN(C=N)C2)cc1)c1nnn[nH]1` (stereo partly drawn) [Example 415, (2S)-2-((1S)-2-(4-(1-(iminomethyl)pyrrolidin-3-yl)phenyl)-1-(1H-tetrazol-5-yl)ethyl)pentanoic acid]: the IC50 on IMP-1 stood at 390 nM; at NDM-1, 121 nM; on VIM-1 it was 4.32 nM. Moreover, the “NDM1 EC30016 MITC95” value in assay [1] came out at 9.375 µM. Also, the “VIM1 KP599644 MITC95” value in assay [2] was found to be 18.75 µM. In assay [3], the “IMP1 SM5741 MITC95” value was found to be 12.5 µM.

Take `CCC[C@H](C(=O)[O-])[C@H](Cc1cc[n+](C)cc1)c1nnn[nH]1` [Example 417, (S)-2-((S)-2-(1-methylpyridin-1-ium-4-yl)-1-(1H-tetrazol-5-yl)ethyl)pentanoate]: the IC50 worked out at 11100 nM on IMP-1, 1280 nM at NDM-1 and 45.1 nM on VIM-1. For the same compound, the “NDM1 EC30016 MITC95” value in assay [1] was 4.688 µM. In assay [2], the “VIM1 KP599644 MITC95” value came to 9.375 µM. Besides, in assay [3], the “IMP1 SM5741 MITC95” value came out at 200 µM.

Regarding `CCC[C@H](C(=O)[O-])[C@H](Cc1ccc(C2CC[N+](C)(C)C2)cc1)c1nnn[nH]1` (stereo partly drawn) [Example 418, (2S)-2-((1S)-2-(4-(1,1-dimethylpyrrolidin-1-ium-3-yl)phenyl)-1-(1H-tetrazol-5-yl)ethyl)pentanoate], the IC50 at IMP-1 was determined as 1990 nM; on NDM-1, 405 nM; at VIM-1 it was 30.8 nM. In addition, in assay [1], the “NDM1 EC30016 MITC95” value amounted to 18.75 µM. Also, in assay [2], the “VIM1 KP599644 MITC95” value was determined as 25 µM. In assay [3], the “IMP1 SM5741 MITC95” value was found to be 37.5 µM.

As usually defined, the IC50 is the concentration that inhibits the measured activity by half.
